Reference: article PMC5557574 (Critical Care, 2017)
Where two headings read alike, the source gives them in different places. Positions of bridges follow the written chain, without caps; N, C: chain ends. Non-standard residues stand in square brackets, D forms with d. Residues, ends and D or L forms follow the SMILES beside them. Orn(iPr) = CC(C)NCCC[C@H](N)C(=O)O; Aad = N[C@@H](CCCC(=O)O)C(=O)O

Legend:
[1] = Pharmacokinetics in septic shock patients, two-compartment population pharmacokinetic model; type: in vivo, human; conditions: for Initial elimination half-life / Time to steady state / clearance / Vd / half-life: mean (SD), SD; for clearance / Vd / half-life: human, in vivo, intravenous; for clearance: read-out: Clearance (total systemic) (converted); for Vd: read-out: Steady state volume; for half-life: read-out: Terminal elimination half-life (converted)
Protocol: Because the study drug infusion was administered according to need, the pharmacokinetic parameters steady-state concentration, total systemic clearance, distribution volume at steady state, and half-life were calculated by modeling using a two-compartment population pharmacokinetic model with random subject effects on clearance and distribution volume using WinNonlin®Pro (Pharsight Corp., Cary, NC, USA). Actual blood sampling time points were used for the calculations.
Data are generated by modelling the concentration data available from all subjects. Mean (SD)

[2] = system: patients in early septic shock; assay: Safety: treatment-emergent adverse events in the phase IIa trial; type: in vivo, human
Protocol: Secondary endpoints included pharmacodynamics, pharmacokinetics, safety (vital signs, central venous pressure, central venous oxygen saturation, electrocardiographic and cardiac function, respiratory function, clinical chemistry, hematology, hemostasis, and urinalysis), organ dysfunction, an indirect measure of vascular leakage (i.e., fluid balance), and morbidity. Treatment-emergent adverse events (occurrence from start of study drug to 48 h after infusion was stopped) were collated and evaluated. Morbidity and organ dysfunction were evaluated by time course of Sequential Organ Failure Assessment (SOFA) scores; days alive and free of organ dysfunction (using SOFA); proportion of patients off all vasopressors; days alive and out of intensive care unit (ICU); days alive and free of vasopressors; corticosteroids for sepsis treatment, dialysis, or mechanical ventilation at days 7, 14, and 28; ICU and hospital (up to day 28) lengths of stay; and plasma C-reactive protein (CRP), tumor necrosis factor (TNF)-α, interleukin (IL)-6, IL-10, and IL-1ra levels.

healthy subjects = system: healthy subjects; design: method as in Ferring Pharmaceuticals A/S, unpublished data; conditions: 30 healthy subjects, infusion rates up to 3.0 ng/kg/minute for 6 h; ref Ferring Pharmaceuticals A/S, unpublished data; cited from earlier work
[3] = design: method as in Ferring Pharmaceuticals, unpublished data; conditions: healthy subjects; ref Ferring Pharmaceuticals, unpublished data; cited from earlier work
patients = conditions: 30 patients, infusion rates of 3.75 ng/kg/minute and higher; ref Ferring Pharmaceuticals A/S, unpublished data; cited from earlier work
[4] = cited from earlier work
[5] = Selepressin 2.5 ng/kg/minute (n = 19), possibly or probably related
[6] = Selepressin 3.75 ng/kg/minute (n = 2), possibly or probably related

Molecule: CC[C@H](C)[C@@H]1NC(=O)[C@H](Cc2ccccc2)NC(=O)[C@@H](N)CSSC[C@@H](C(=O)N2CCC[C@H]2C(=O)N[C@@H](CCCNC(C)C)C(=O)NCC(N)=O)NC(=O)[C@H](CC(N)=O)NC(=O)[C@H](CCCC(N)=O)NC1=O [selepressin] (H-CFI[Aad](NH2)NCP[Orn(iPr)]G-NH2; disulfide 1-6)
- Initial distribution/elimination phase half-life [1]: approximately 10 minutes
- Initial elimination half-life ([1]; 1.25 ng/kg.min, N=10, modelled): 0.18 (0.09) h
- Time to steady state ([1]; 1.25 ng/kg.min, N=10, modelled): 7.6 (2.8) h
- Initial elimination half-life ([1]; 2.5 ng/kg.min, N=17, modelled): 0.17 (0.06) h
- Time to steady state ([1]; 2.5 ng/kg.min, N=17, modelled): 7.0 (2.3) h
- Terminal half-life ([1]; both dose groups): 2.5 h
- Time to steady-state concentration ([1]; both infusion rates (1.25 and 2.5)): approximately 7 h
- clearance ([1]; 1.25 ng/kg.min, N=10, modelled): 167 mL/min
- Vd ([1]; 1.25 ng/kg.min, N=10, modelled): 25.5 L
- half-life ([1]; 1.25 ng/kg.min, N=10, modelled): 2.5 h
- clearance ([1]; 2.5 ng/kg.min, N=17, modelled): 218 mL/min
- Vd ([1]; 2.5 ng/kg.min, N=17, modelled): 31.2 L
- half-life ([1]; 2.5 ng/kg.min, N=17, modelled): 2.7 h
- Any severe TEAE: E (events) ([2]; 1.25 ng/kg.min N=10): 8
- Any severe TEAE: N (%) ([2]; 1.25 ng/kg.min N=10): 3 (30)
- Severe TEAE Acute respiratory distress syndrome: E (events) ([2]; 1.25 ng/kg.min N=10): 1
- Severe TEAE Acute respiratory distress syndrome: N (%) ([2]; 1.25 ng/kg.min N=10): 1 (10)
- Severe TEAE Ascites: E (events) ([2]; 1.25 ng/kg.min N=10): 1
- Severe TEAE Ascites: N (%) ([2]; 1.25 ng/kg.min N=10): 1 (10)
- Severe TEAE Cerebral hemorrhage: E (events) ([2]; 1.25 ng/kg.min N=10): 1
- Severe TEAE Cerebral hemorrhage: N (%) ([2]; 1.25 ng/kg.min N=10): 1 (10)
- Severe TEAE Disseminated intravascular coagulation: E (events) ([2]; 1.25 ng/kg.min N=10): 1
- Severe TEAE Disseminated intravascular coagulation: N (%) ([2]; 1.25 ng/kg.min N=10): 1 (10)
- Severe TEAE Hepatic failure: E (events) ([2]; 1.25 ng/kg.min N=10): 1
- Severe TEAE Hepatic failure: N (%) ([2]; 1.25 ng/kg.min N=10): 1 (10)
- Severe TEAE Hyperkalemia: E (events) ([2]; 1.25 ng/kg.min N=10): 1
- Severe TEAE Hyperkalemia: N (%) ([2]; 1.25 ng/kg.min N=10): 1 (10)
- Severe TEAE Mechanical ventilation complication: E (events) ([2]; 1.25 ng/kg.min N=10): 1
- Severe TEAE Mechanical ventilation complication: N (%) ([2]; 1.25 ng/kg.min N=10): 1 (10)
- Severe TEAE Oliguria: E (events) ([2]; 1.25 ng/kg.min N=10): 1
- Severe TEAE Oliguria: N (%) ([2]; 1.25 ng/kg.min N=10): 1 (10)
- Any severe TEAE: E (events) ([2]; 2.5 ng/kg.min N=19): 6
- Any severe TEAE: N (%) ([2]; 2.5 ng/kg.min N=19): 4 (21)
- Severe TEAE Myocarditis: E (events) ([2]; 2.5 ng/kg.min N=19): 1
- Severe TEAE Myocarditis: N (%) ([2]; 2.5 ng/kg.min N=19): 1 (5)
- Severe TEAE Peripheral ischemia: E (events) ([2]; 2.5 ng/kg.min N=19): 1
- Severe TEAE Peripheral ischemia: N (%) ([2]; 2.5 ng/kg.min N=19): 1 (5)
- Severe TEAE Pneumothorax: E (events) ([2]; 2.5 ng/kg.min N=19): 1
- Severe TEAE Pneumothorax: N (%) ([2]; 2.5 ng/kg.min N=19): 1 (5)
- Severe TEAE Respiratory distress: E (events) ([2]; 2.5 ng/kg.min N=19): 2
- Severe TEAE Respiratory distress: N (%) ([2]; 2.5 ng/kg.min N=19): 2 (11)
- Severe TEAE Urinary bladder hemorrhage: E (events) ([2]; 2.5 ng/kg.min N=19): 1
- Severe TEAE Urinary bladder hemorrhage: N (%) ([2]; 2.5 ng/kg.min N=19): 1 (5)
- Adverse drug reactions judged as serious ([2]; 2.5 ng/kg/minute group, one patient): myocarditis and peripheral ischemia
- Any severe TEAE: E (events) ([2]; 3.75 ng/kg.min N=2): 2
- Any severe TEAE: N (%) ([2]; 3.75 ng/kg.min N=2): 2 (100)
- Severe TEAE Cardio-respiratory arrest: E (events) ([2]; 3.75 ng/kg.min N=2): 1
- Severe TEAE Cardio-respiratory arrest: N (%) ([2]; 3.75 ng/kg.min N=2): 1 (50)
- Severe TEAE Myocardial ischemia: E (events) ([2]; 3.75 ng/kg.min N=2): 1
- Severe TEAE Myocardial ischemia: N (%) ([2]; 3.75 ng/kg.min N=2): 1 (50)
- Adverse drug reactions judged as serious ([2]; 3.75 ng/kg/minute group): myocardial ischemia
- Cyanosis, treatment-related adverse drug reaction: No. of subjects (%) [2, 5]: 1 (5)
- Cyanosis, treatment-related adverse drug reaction: events [2, 5]: 1
- Hypertension, treatment-related adverse drug reaction: No. of subjects (%) [2, 5]: 2 (11)
- Hypertension, treatment-related adverse drug reaction: events [2, 5]: 2
- Myocarditis, treatment-related adverse drug reaction: No. of subjects (%) [2, 5]: 1 (5)
- Myocarditis, treatment-related adverse drug reaction: events [2, 5]: 1
- Peripheral ischemia, treatment-related adverse drug reaction: No. of subjects (%) [2, 5]: 1 (5)
- Peripheral ischemia, treatment-related adverse drug reaction: events [2, 5]: 1
- Myocardial ischemia, treatment-related adverse drug reaction: No. of subjects (%) [2, 6]: 1 (50)
- Myocardial ischemia, treatment-related adverse drug reaction: events [2, 6]: 1
- Tolerability ([2]; selepressin 2.5 ng/kg/minute, septic shock patients): well tolerated
- Tolerability (treatment-emergent adverse events vs placebo) ([2]; selepressin dose groups, septic shock patients): well tolerated
- Deaths related to ischemic event(s) attributable to selepressin ([2]; septic shock patients, all dose groups): no deaths
- Safety and tolerability (healthy subjects): safe and well tolerated
- Terminal half-life [3]: 1.5 h
- Safety (patients): did not raise any safety concerns
- Half-life (qualitative, compared with vasopressin and terlipressin) [4]: intermediate

Molecule: terlipressin [reference compound]
- Half-life (qualitative) ([4]; in vivo): long half-life
